From patent US20160279135A1, “THERAPIES FOR TREATING MYELOPROLIFERATIVE DISORDERS” (Gilead Sciences, Inc., priority 2013, published 2016)
Values joined by “and” are separate entries in the source; they are usually repeats but may differ in a detail not shown here. Equal entries are not always repeated.

Assays:
[1] = test system: p-AKT Ser473; experiment: Western blot of AKT phosphorylation in BaF3/MPL cells; format: cell-based; settings: 2 h, then TPO 50 ng/mL 10 min, vs vehicle
Description: (§1) In addition, Compound B was examined for the effects on the PI3K signaling pathway by determining the levels of AKT and S6 phosphorylation with or without TPO activation. Two cell lines, BaF3/MPL and UT-7/TPO sensitive or responsive to TPO activation were used. The cells were starved (i.e. growing on medium having less FBS) in […] FBS/RPMI for two hours before treated with 0.1, 1.0, or 2.0 μM of Compound B or vehicle (0.1% DMSO in RPMI) for 2 hours at 37° C. To examine the TPO-activated phosphorylation, the cells were then treated or activated with 50 ng/mL of human recombinant TPO (Peprotech) for 10 minutes at 37° C. The TPO activation or treatment may reflect the conditions in diseased cells as the PI3K pathway is activated by TPO in myelofibrosis. After treating with compound and/or TPO, the cells were collected, lysed by lysis buffer (Cell Signaling), separated by SDS-PAGE, and analyzed by the Western blot using antibodies specific to p-AKT Ser473 or pS6 Ser235/236 (Cell Signaling). The phosphorylation levels in treated cells were calculated and compared to those of untreated cells (i.e. vehicle as negative control).

[2] = test system: pS6 Ser235/236; experiment: Western blot of S6 phosphorylation in BaF3/MPL cells; format: cell-based; settings: 2 h, then TPO 50 ng/mL 10 min, vs vehicle
Description: as §1

[3] = test system: p-AKT Ser473; experiment: Western blot of AKT phosphorylation in UT-7/TPO cells; format: cell-based; settings: 2 h, then TPO 50 ng/mL 10 min, vs vehicle
Description: as §1

[4] = test system: p-AKT Ser473; experiment: flow cytometry of AKT phosphorylation in CD34+ progenitor cells from MF patients; format: cell-based, human; settings: 2.0 μM
Description: In this example, PBMCs were isolated from whole blood of myelofibrosis (MF) patients who had not received treatments (i.e. naïve patients) or received ruxolitinib (i.e. rux-treated patients). The cells were treated with 0.02, 0.2, or 2.0 μM of Compound B or vehicle (0.1% DMSO in 0.1% FBS/RPMI) for 2 hours at 37° C. The cells were then fixed, permeabilized, and stained for FACS analysis. Antibodies specific to p-AKT Ser473 and pS6RP Ser235/236 were used to detect AKT phosphorylation (p-AKT) and S6RP phosphorylation (p-S6RP) in CD34^+/CD3^−/CD14^−/CD19/CD66^− (BD Biosciences) gated cells using flow cytometry. The percentage of basal (i.e. untreated with TPO) AKT and S6RP phosphorylation were normalized to vehicle control (i.e. “no TPO” values shown in Table 2). A two-tailed paired t-test (GraphPad Prism) was used to calculate p-values. Values of p<0.05 were considered significant.
Also, PBMC cells were treated with Compound B and with TPO as described above. The percentage of TPO-activated AKT and S6RP phosphorylation were normalized to those of TPO-treated vehicle. […] Also, the inhibition to PI3K signaling was dose-dependent to Compound B.
Similar studies were conducted with PI3K inhibitors Compounds C and D. PBMC from MF patients had received ruxolitinib (rux) and MF patient had received Compound A. The cells were treated with Compounds C or D at 0, 20.0, 200.0, 2000.0 nM for 2 hours at 37° C. Cells were treated with TPO for 10 minutes. The percentage of basal p-AKT and p-S6RP levels were normalized to vehicle control and those of TPO-treated were normalized to TPO-treated vehicle control. The PI3K inhibitors Compounds C and D had the chemical names of (S)-2-(1-((9H-purin-6-yl)amino)ethyl)-6-fluoro-3-phenylquinazolin-4(3H)-one and (S)-2,4-diamino-6-(((5-chloro-8-fluoro-4-oxo-3-(pyridine-3-yl)-3,4-dihydroquinazolin-2-yl)(cyclopropyl)methyl)amino)pyrimidine-5-carbonitrile, respectively.

[5] = test system: p-S6RP; experiment: flow cytometry of p-S6RP in TPO-stimulated CD34+ cells from MF patients on chronic ruxolitinib (Example 8); format: cell-based, human; settings: for percentage of the p-S6RP levels: 2 h, then TPO 50 ng/mL, one value per patient, TPO vehicle = 100
Description: (§2) In this study, PBMCs were isolated from the whole blood from five MF patients receiving chronic ruxolitinib treatment (rux 1-rux 5). The cells were treated with either vehicle, ruxolitinib, and/or Compound B for 2 hours then stimulated with TPO (50 ng/mL) for 10 minutes. Ruxolitinib at the dose of 1 or 20 nM and Compound B at the dose of 45, 200, or 700 nM were used.
The treated cells were then fixed, permeabilized and stained for FACS analysis using FACSCalibur analyzed using BD FACSDiva software.

[6] = clinical; settings: human, in vivo
Excerpt: For in vitro or in vivo studies, the effect amount of Compounds A, B, C, D, E, or ruxolinitib may be adjusted according to the experimental condition. Similarly, the effect amount of Compounds D1, D2, D3, D4, D5, D6, D7, D8, D9, E1, E2, E3, E4, E5, E6, E7, E8, E9, or F, may be adjusted according to the experimental condition for in vitro or in vivo studies. For example, compounds may be used in the amount of 0.001, 0.002, 0.003, 0.004, 0.005, 0.006, 0.007, 0.008, 0.009, 0.01, 0.02, 0.03, 0.04, 0.05, 0.06, 0.07, 0.08, 0.09, 0.1, 0.2, 0.3, 0.4, 0.5, 0.6, 0.7, 0.8, 0.9, 1.0, 1.5, 2.0, 2.5, 3.0, 3.5, 4.0, 5.0, 6.0, 7.0, 8.0, 9.0, or 10.0 μM. In some studies, the in vitro doses of the compounds may be calculated to correspond to the clinical doses of the compounds. The calculation may consider various factors, such as protein binding and plasma concentration. […] It is understood that the in vitro doses may differ, depend on the assay condition and other calculation factors, and that the clinical doses may differ depend on the disease indication and the patient condition.
as §2
Next, Pfeiffer cells were treated with IL6 (0 or 3 ng/mL), Compound A (0, 136, 272, or 695 nM), and/or Compound B (0, 74, 200, or 421 nM) (n=4 per group) for 96 hours. The doses in this assay may correspond to those used in a clinical setting. […] In addition, the in-vitro dose of 136 nM Compound A may correspond to the potential Caverage detected in patients receiving Compound A at 300 mg once a day.

CC[C@H](Nc1ncnc2[nH]cnc12)c1nc2cccc(F)c2c(=O)n1-c1ccccc1 [Compound B, (S)-2-(1-((9H-purin-6-yl)amino)propyl)-5-fluoro-3-phenylquinazolin-4(3H)-one]
reduced p-AKT levels ([1]; 0.1 μM): 51% | reduced p-AKT levels ([1]; 1.0 μM): 64% | reduced p-S6 levels ([2]; 0.1 μM): 24% | reduced p-S6 levels ([2]; 1.0 μM): 27% | reduced p-S6 levels ([2]; 2.0 μM): 41% | reduced p-AKT levels ([3]; 0.1 μM): 11% | reduced p-AKT levels ([3]; 1.0 μM): 44% | reduced p-AKT levels ([3]; 2.0 μM): 55% | normalized percentage of TPO-activated AKT phosphorylation (p-AKT) ([4]; then TPO, progenitor cells of rux-treated MF patients, one value per patient, TPO-treated vehicle = 100): 40% and 29% and 35% and 16% (2×) | normalized percentage of p-AKT ([4]; progenitor cells from Compound A-treated MF patients, one value per subject, column 0 = 100): 24% and 55% and 30% | percentage of the p-S6RP levels ([5]; Compound B 45 nM): 82% and 58% and 49% and 74% and 36% | percentage of the p-S6RP levels ([5]; Compound B 200 nM): 62% and 46% and 38% and 63% and 33% | percentage of the p-S6RP levels ([5]; Compound B 700 nM): 46% and 48% and 32% and 55% and 17% | inhibition at 0.045 µM ([5]; Homo sapiens, Compound B 45 nM, TPO-stimulated cells vs vehicle, all five patients, read-out: p-S6RP levels decreased (inhibited) by): 40% | inhibition at 0.2 µM ([5]; Homo sapiens, Compound B 200 nM, TPO-stimulated cells vs vehicle, all five patients, read-out: p-S6RP levels decreased (inhibited) by): 52% | inhibition at 0.7 µM ([5]; Homo sapiens, Compound B 700 nM, TPO-stimulated cells vs vehicle, all five patients, read-out: p-S6RP levels decreased (inhibited) by): 60% | in-vitro dose corresponding to the potential Caverage [6]: 200 nM | in-vitro dose corresponding to the potential Cmin [6]: 74 nM | Cmax ([6]; 150 mg): 421 nM
